Measurements taken from paper PMC12848680, “Microbial Cross-Talk: Unlocking the Cytochalasin Diversity from a Termite-Associated Xylaria” (JACS Au, 2025).
In brackets after ≈: the same amount, converted by molar mass. Where two headings read alike, the source gives them in different places.

Columns and labels:
E. coli ΔacrB (JW0451-2) = experiment: Antibacterial activity against E. coli ΔacrB; type: cell-based; conditions: Escherichia coli, read-out: E. coli ΔacrB (JW0451-2) MIC
in vitro [1] = type: in vitro ADME, mouse; conditions: for microsomal CLint: C57BL/6, mouse, microsomes; for half-life: mouse, 1 μM compound, 0.5 mg/mL pooled C57BL/6 microsomes, read-out: Mouse liver microsome t1/2
Protocol: Assays in liver microsomes: For metabolic stability, the compound (1 μM) was incubated with 0.5 mg/mL pooled mouse (C57BL/6) microsomes (Xenotech, Kansas City, USA), 2 mM NADPH, 10 mM MgCl2 at 37 °C for 120 min on a microplate shaker. The metabolic stability of testosterone, verapamil and ketoconazole were determined in parallel to confirm the enzymatic activity of mouse/rat liver microsomes. The incubation was stopped after defined time points by precipitation of aliquots of the incubation mixture with 2 volumes of cold internal standard solution (15 nM diphenhydramine in 10% methanol/acetonitrile). Samples were stored on ice until the end of the incubation and precipitated protein was removed by centrifugation (15 min, 4 °C, and 4,000 g). Concentration of the remaining test compound at the different time points was analyzed by HPLC-MS/MS (Vanquish Flex coupled to a TSQ Altis Plus, Thermo Fisher, Dreieich, Germany) and used to determine half-life (t1/2). […]

[2] = test system: A549 (human lung carcinoma cell line); experiment: Cytotoxicity assay (MTT, 5 d) on A549; type: cell-based; conditions: for IC50: Homo sapiens, A549, 120 h, MTT, 5 d incubation; for Cytotoxic activity against A549 (in words): positive control doxorubicin
Protocol: (§1) Cytotoxicity assay: A549 (human lung carcinoma cell line; ACC 107) and CHO-K1 (chinese hamster ovary cells; ACC 110) were obtained from the German Collection of Microorganisms and Cell Cultures (DSMZ) and cultured under the conditions recommended by the depositor. Cells were propagated in Dulbeccos’s Modified Eagle’s Medium (DMEM) and Ham’s F12 medium, respectively, supplemented with 10% fetal bovine serum (FBS), and seeded at 6×10^3 cells per well of 96-well plates in 120 μL of complete medium. After 2 h of equilibration (37 °C, 5% CO2), the cells were treated with a serial dilution of cytochalasins in 60 µL growth medium. Cytochalasins, doxorubicin as reference, as well as the solvent control were tested as duplicates in two independent experiments. After 5 d of incubation (37 °C, 5% CO2), a total of 20 μL of 5 mg/ml MTT (thiazolyl blue tetrazolium bromide) in phosphate -buffered saline (PBS) were added to each well […]
(§2) and the cells were further incubated for 2 h at 37 °C before the supernatant was discarded.
(§3) Subsequently, the cells were washed with 100 μL of PBS and treated with 100 μl of 2-propanol/10 N HCl (250:1) to dissolve formazan granules. Cell viability was measured as percentage relative to the respective solvent control by measuring the absorbance at 570 nm using a microplate reader (Tecan Infinite M200Pro). GraphPad Prism (version 10.0.3, GraphPad, Boston, MA, USA) was used for sigmoidal curve fitting to determine the IC50 values.

in vitro [3] = type: in vitro ADME, mouse; conditions: for half-life at 1 μM: 1 μM compound, pooled CD-1 mouse plasma, read-out: Mouse plasma t1/2
Protocol: Plasma stability assays: To determine stability in plasma, the compound (1 μM) was incubated with pooled CD-1 mouse plasma (Neo Biotech, Nanterre, France). Samples were taken by mixing aliquots with 4 volumes of cold internal standard solution (12.5 nM diphenhydramine in 10% methanol/acetonitrile). The plasma stability of procain, propantheline and diltiazem were determined in parallel to confirm the enzymatic activity. Samples were stored on ice until the end of the incubation and precipitated protein was removed by centrifugation (15 min, 4 °C, 4,000 g, two centrifugation steps). Concentration of the remaining test compound at the different time points was analyzed by HPLC-MS/MS (Vanquish Flex coupled to a TSQ Altis Plus, Thermo Fisher, Dreieich, Germany). […]

[4] = test system: Staphylococcus aureus Newman; experiment: Antibacterial activity against S. aureus Newman; type: cell-based; conditions: Table S22
[5] = test system: CHO-K1 (chinese hamster ovary cells); experiment: Cytotoxicity assay (MTT, 5 d) on CHO-K1; type: cell-based; conditions: Cricetulus griseus, CHO-K1, 120 h
Protocol: as §1, §2, §3

[6] = Table S22, intrinsic clearance calculated from microsomal metabolism data
[7] = Table 1, intrinsic clearance from microsomal metabolism data

Row | Structure (SMILES) | MIC (E. coli ΔacrB (JW0451-2)) [µg/mL] | microsomal CLint (in vitro [1]; [6]) [µL/min/mg] | half-life (in vitro [1]; Table S22) [min] | IC50 ([2]; Table S22) [µg/mL] | half-life at 1 μM (in vitro [3]; Table S22) [min] | MIC [4] [µg/mL] | IC50 ([5]; Table S22, 5 d incubation) [µg/mL] | microsomal CLint (in vitro [1]; [7]) [µL/min/mg] | half-life (in vitro [1]; Table 1, 120 min) [min] | IC50 ([2]; Table 1) [µg/mL] | Cytotoxic activity against A549 (in words) [2] | half-life at 1 μM (in vitro [3]; Table 1) [min] | IC50 ([5]; Table 1, 5 d incubation) [µg/mL] | Compound remaining in mouse plasma (in vitro [3]; Table 1, at 240 min) [%] | Compound remaining in mouse plasma (in vitro [3]; Table S22, at 4 h)
1 | CC1CC=CC2C3OC3(C)C(C)C3C(Cc4ccccc4)NC(=O)C23C(O)C2OC2C(C)C1=O (stereo not drawn) [Compound 1, deacetyl-18-desoxy-19,20-epoxycytochalasin Q] | > 64 | 102 ± 13 | 13.8 ± 1.8 | 0.32 ± 0.1 (≈ 0.687 µM) | > 240 | > 64 | 1.21 ± 0.31 (≈ 2.6 µM) | – | – | – | – | – | – | – | –
2 | CC(=O)O[C@@H]1/C=C/[C@@](C)(O)C(=O)[C@@H](C)C/C=C/[C@H]2[C@H](O)C(C)=C(C)[C@H]3[C@H](Cc4ccccc4)NC(=O)[C@@]123 [Compound 2, cytochalasin C] | > 64 | 88 ± 7 | 15.8 ± 1.2 | 3.34 ± 0.92 (≈ 6.58 µM) | > 240 | > 64 | 1.48 ± 1.38 (≈ 2.92 µM) | – | – | – | – | – | – | – | –
3 | CC(=O)OC1C2OC2C(C)(O)C(=O)C(C)CC=CC2C(O)C(C)=C(C)C3C(Cc4ccccc4)NC(=O)C213 (stereo not drawn) [Compound 3, 19,20-epoxycytochalasin C] | > 64 | – | – | – | – | > 64 | – | 31.6 ± 1.4 | 43.9 ± 2 | 0.34 ± 0.13 (≈ 0.649 µM) | comparable to the positive control | > 240 | 0.51 ± 0.27 (≈ 0.974 µM) | – | –
4 | CC1=C(C)C2C(Cc3ccccc3)NC(=O)C23C(O)C2OC2C(C)(O)C(=O)C(C)CC=CC3C1O (stereo not drawn) [Compound 4, deacetyl-19,20-epoxycytochalasin C] | > 64 | 26.2 ± 0.1 | 53.1 ± 0.2 | 1.07 (≈ 2.22 µM) | > 240 | > 64 | 4.63 ± 4.23 (≈ 9.61 µM) | – | – | – | – | – | – | – | –
5 | CC(=O)OC1C2OC2C(C)C(=O)C(C)CC=CC2C(O)C(C)=C(C)C3C(Cc4ccccc4)NC(=O)C213 (stereo not drawn) [Compound 5, 18-desoxy-19,20-epoxycytochalasin C] | > 64 | – | – | – | – | > 64 | – | 132 ± 38 | 11 ± 3 | 0.87 ± 1.38 (≈ 1.71 µM) | comparable to the positive control | > 240 | 9.88 ± 7.69 (≈ 19.5 µM) | 74 ± 5 | >240 (74 ± 5% at 4 h)
6 | CC(=O)OC1C2OC2C(C)(O)C(=O)C(C)CC=CC2C3OC3(C)C(C)C3C(Cc4ccccc4)NC(=O)C213 (stereo not drawn) [Compound 6, 19,20-epoxycytochalasin Q] | > 64 | 97 ± 24 | 15 ± 4 | 0.14 ± 0.02 (≈ 0.267 µM) | > 240 | > 64 | 0.72 ± 0.3 (≈ 1.38 µM) | – | – | – | – | – | – | – | –
7 | CC1CC=CC2C3OC3(C)C(C)C3C(Cc4ccccc4)NC(=O)C23C(O)C2OC2C(C)(O)C1=O (stereo not drawn) [Compound 7, deacetyl-19,20-epoxycytochalasin Q] | > 64 | 14 ± 3 | 102 ± 24 | 2.56 ± 0.94 (≈ 5.32 µM) | > 240 | > 64 | 3.78 ± 0.3 (≈ 7.85 µM) | – | – | – | – | – | – | – | –
8 | CC(=O)OC1C2OC2C(C)(O)C(=O)C(C)CC2OC2C2C3OC3(C)C(C)C3C(Cc4ccccc4)NC(=O)C132 (stereo not drawn) [Compound 8, 19,20-epoxycytochalasin R] | > 64 | 37 ± 4 | 38 ± 4 | > 37 | > 240 | > 64 | 17.3 ± 8.94 (≈ 32 µM) | – | – | – | – | – | – | – | –
9 | C=C1C(C)C2C(Cc3ccccc3)NC(=O)C23C(C=CCC(C)C(=O)C(C)(O)C2OC2C3OC(C)=O)C1O (stereo not drawn) [Compound 9, 19,20-epoxycytochalasin D] | > 64 | – | – | – | – | > 64 | – | 35 ± 3 | 40 ± 3.7 | – | – | > 240 | 10.3 ± 5.07 (≈ 19.8 µM) | – | –
10 | CC(=O)OC1C2OC2C(C)(O)C(=O)C(C)CC=CC2C(O)C(C)=C(C)C3C(Cc4cccc(Cl)c4)NC(=O)C213 (stereo not drawn) [Compound 11, m-chloro-19,20-epoxycytochalasin C] | > 64 | – | 26.4 ± 1.2 | – | – | > 64 | – | 52.7 ± 2.5 | – | 0.04 (≈ 0.0717 µM) | lower nanomolar activities | > 240 | 0.67 ± 0.53 (≈ 1.2 µM) | – | –
11 | CC1=C(C)C2C(Cc3cccc(Cl)c3)NC(=O)C23C(O)C2OC2C(C)(O)C(=O)C(C)CC=CC3C1O (stereo not drawn) [Compound 12, m-chloro-deacetyl-19,20-epoxycytochalasin C] | > 64 | 39 ± 12 | 36 ± 10 | > 37 | > 240 | > 64 | 2.02 ± 1.2 (≈ 3.91 µM) | – | – | – | – | – | – | – | –
12 | CC(=O)O[C@@H]1/C=C/[C@@](C)(O)C(=O)[C@@H](C)C/C=C/[C@H]2[C@@H]3O[C@]3(C)[C@@H](C)[C@H]3[C@H](Cc4cccc(Cl)c4)NC(=O)[C@@]312 [Compound 13, m-chloro-cytochalasin Q] | > 64 | 95 ± 15 | 15 ± 3 | 0.14 ± 0.02 (≈ 0.258 µM) | > 240 | > 64 | 0.41 ± 0.06 (≈ 0.756 µM) | – | – | – | – | – | – | – | –
13 | CC(=O)OC1C2OC2C(C)(O)C(=O)C(C)CC=CC2C3OC3(C)C(C)C3C(Cc4cccc(Cl)c4)NC(=O)C213 (stereo not drawn) [Compound 14, m-chloro-19,20-epoxycytochalasin Q] | > 64 | 45.7 ± 1.6 | 30.4 ± 1.1 | 0.11 ± 0.05 (≈ 0.197 µM) | > 240 | > 64 | 0.69 ± 0.07 (≈ 1.24 µM) | – | – | – | – | – | – | – | –
14 | CC1CC=CC2C3OC3(C)C(C)C3C(Cc4cccc(Cl)c4)NC(=O)C23C(O)C2OC2C(C)(O)C1=O (stereo not drawn) [Compound 15, m-chloro-deacetyl-19,20-epoxycytochalasin Q] | > 64 | – | – | 0.08 ± 0.03 (≈ 0.155 µM) | – | > 64 | – | 39 ± 3 | 36 ± 3 | 0.04 ± 0.03 (≈ 0.0775 µM) | lower nanomolar activities | > 240 | 0.81 ± 0.1 (≈ 1.57 µM) | – | –
15 | COc1cccc2c1C(=O)c1c(O)c3c(c(O)c1C2=O)C[C@@](O)(C(=O)CO)C[C@@H]3O[C@H]1C[C@H](N)[C@H](O)[C@H](C)O1 [doxorubicin, reference compound] | – | – | – | – | – | – | – | – | – | 0.3 (≈ 0.552 µM) | – | – | – | – | –
